Experimental data reported in patent US8835403B2, “Algin oligosaccharides and the derivatives thereof as well as the manufacture and the use of the same” (priority 2004, dated 2014).

Columns and labels:
[1] = system: MDA; assay: MDA content of cerebral cortex and hippocampus of Aβ1-40-induced AD mice; format: in vivo
[2] = system: Na+, K+-ATPase; assay: Na+, K+-ATPase activity in cerebral cortex and hippocampus of Aβ1-40-induced AD mice; format: in vivo
Procedure: Following the behavioral test, rats are decapitated. Cerebral cortex and hippocampus are dissected on ice immediately, and stored at −80° C. after quick freezing in liquid nitrogen for 1 hour. MDA, SOD, GSH-PX, Na^+, K^+-ATPase, AchE and CHAT activities in the brain regions are determined using the respective kits. The homogenates of cerebral cortex and hippocampus are prepared with saline with a final concentration of 10% and 5%. The supernatant were obtained after centrifuging at 3600 rpm to test MDA, CuZn-SOD, GSH-PX, Na^+K^+-ATPase, AchE, and CHAT activities. The activity of ChAT is determined with isotope-labeled method. The other indexes and amount of total proteins are tested with the respective kits supplied by Nanjing Jiancheng Bioengineering Institute.

O=C(O)C1OC(OC2C(C(=O)O)OC(OC3C(C(=O)O)OC(OC4C(C(=O)O)OC(OC5C(C(=O)O)OC(OC6C(C(=O)O)OC(O)C(O)C6O)C(O)C5O)C(O)C4O)C(O)C3O)C(O)C2O)C(O)C(O)C1O (stereo not drawn) [6-mer, mannuronic hexasaccharide]
MDA content (nmol/ml) cerebral cortex ([1]; 15 mg/kg): 1.79 ± 0.15 nmol/mL | MDA content (nmol/ml) cerebral cortex ([1]; 30 mg/kg): 1.87 ± 0.18 nmol/mL | MDA content (nmol/ml) cerebral cortex ([1]; 60 mg/kg): 1.47 ± 0.11 nmol/mL | MDA content (nmol/ml) hippocampus ([1]; 15 mg/kg): 4.28 ± 0.82 nmol/mL | MDA content (nmol/ml) hippocampus ([1]; 30 mg/kg): 2.48 ± 0.43 nmol/mL | MDA content (nmol/ml) hippocampus ([1]; 60 mg/kg): 2.18 ± 0.43 nmol/mL | ATPase activity (μmol Pi/mg prot./hour) cerebral cortex ([2]; 15 mg/kg): 1.08 ± 0.06 μmol Pi/mg prot./hour | ATPase activity (μmol Pi/mg prot./hour) cerebral cortex ([2]; 30 mg/kg): 1.09 ± 0.08 μmol Pi/mg prot./hour | ATPase activity (μmol Pi/mg prot./hour) cerebral cortex ([2]; 60 mg/kg): 1.08 ± 0.05 μmol Pi/mg prot./hour | ATPase activity (μmol Pi/mg prot./hour) hippocampus ([2]; 15 mg/kg): 2.10 ± 0.29 μmol Pi/mg prot./hour | ATPase activity (μmol Pi/mg prot./hour) hippocampus ([2]; 30 mg/kg): 2.07 ± 0.23 μmol Pi/mg prot./hour | ATPase activity (μmol Pi/mg prot./hour) hippocampus ([2]; 60 mg/kg): 2.52 ± 0.25 μmol Pi/mg prot./hour
